Laboratory results as given in patent US9339503B2, “Tetrahydro-quinazolinone derivatives as TANK and PARP inhibitors” (MERCK PATENT GMBH, priority 2012, dated 2016).

What was measured:
[1] = tested on: tankyrase 1/2; experiment: Measurement of cellular inhibition of tankyrase (Axin2 level, Luminex based assay, DLD1 cells); details: 24 hours, increase of Axin2 level, read-out: EC50 tankyrase 1/2 (cell assay)
Protocol: Measurement of Cellular Inhibition of Tankyrase
Since Tankyrases have been described to modulate cellular level of Axin2 (Huang et al., 2009; Nature) the increase of Axin2 level is used as read-out for determination of cellular inhibition of Tankyrases in a Luminex based assay.
Cells of the colon carcinoma cell line DLD1 are plated in 96 well plates with 1.5×10^4 cells per well. Next day, cells are treated with a serial-dilution of test compound in seven steps as triplicates with a final DMSO concentration of 0.3%. After 24 hours, cells are lysed in lysis buffer (20 mM Tris/HCl pH 8.0, 150 mM NaCl, 1% NP40, 10% Glycerol) and lysates are cleared by centrifugation through a 96 well filter plate (0.65 μm). Axin2 protein is isolated from cell lysates by incubation with a monoclonal anti-Axin2 antibody (R&D Systems #MAB6078) that is bound to fluorescent carboxybeads. Then, bound Axin2 is specifically detected with a polyclonal anti-Axin2 antibody (Cell Signaling #2151) and an appropriate PE-fluorescent secondary antibody. The amount of isolated Axin2 protein is determined in a Luminex^200 machine (Luminex Corporation) according to the manufacturer's instruction by counting 100 events per well. […] For analysis, the obtained data were normalized against the untreated solvent control and fitted for determination of the EC50 values using the Assay Explorer software (Accelrys).

[2] = biological target: T1, GST-tagged Tnks-1 (1023-1327 aa) (Homo sapiens, UniProt O95271); experiment: TNKS 1 activity ELISA (autoparsylation assay); format: biochemical; details: read-out: IC50 tankyrase 1 (ELISA assay)
T1 construct: GST-tagged Tnks-1 (1023-1327 aa, prepared in-house); made in house
Protocol: (§1) Biochemical Activity Testing of TNKS 1 and 2: Activity ELISA (Autoparsylation Assay)
(§2) For analysis of autoparsylation activity of TNKS 1 and 2 an activity ELISA was performed: In the first step GST tagged TNKS was captured on a Glutathione coated plate. Then the activity assay with biotinylated NAD was performed in the absence/presence of the compounds. During the enzymatic reaction GST tagged TNKS transferred biotinylated ADP-ribose to itself from biotinylated NAD as co-substrate. For the detection streptavidin-HRP conjugate was added that bound to the biotinylated TNKS and was thereby captured to the plates. The amount of biotinylated resp autoparsylated TNKS was detected with a luminescence substrate for HRP. The level of the luminescence signal correlated directly with the amount of autoparsylated TNKS and therefore with activity of TNKS.
(§3) The activity ELISA was performed in 384 well Glutathione coated microtiter plates (Express capture Glutathione coated plate, Biocat, Heidelberg, Germany). The plates were pre-equilibrated with PBS. Then the plates were incubated with 50 μl 20 ng/well GST-tagged Tnks-1 (1023-1327 aa, prepared in-house), respectively GST-tagged Tnks-2 (873-1166 aa, prepared in-house) in assay buffer (50 mM HEPES, 4 mM Mg-chloride, 0.05% Pluronic F-68, 2 mM DTT, pH 7.7) overnight at 4° C. The plates were washed 3 times with PBS-Tween-20. The wells were blocked by incubation at room temperature for 20 minutes with 50 μl blocking buffer (PBS, 0.05% Tween-20, 0.5% BSA). Afterwards the plates were washed 3 times with PBS-Tween-20. The enzymatic reaction was performed in 50 μl reaction solution (50 mM HEPES, 4 mM Mg-chloride, 0.05% Pluronic F-68, 1.4 mM DTT, 0.5% DMSO, pH 7.7) with 10 μM bio-NAD (Biolog, Life science Inst., Bremen, Germany) as co-substrate in the absence or presence of the test compound (10 dilution concentrations) for 1 hour at 30° C. The reaction was stopped by 3 times washing with PBS-Tween-20. For the detection 50 μl of 20 ng/μl Streptavidin, HRP conjugate (MoBiTec, Göttingen, Germany) in PBS/0.05% Tween-20/0.01% BSA were added and the plates were incubated for 30 minutes at room temperature. After three times washing with PBS-Tween-20 50 μl of SuperSignal ELISA Femto Maximum sensitivity substrate solution (ThermoFisherScientific (Pierce), Bonn, Germany) were added. Following a 1 minute incubation at room temperature luminescence signals were measured with an Envision multimode reader (Perkin Elmer LAS Germany GmbH) at 700 nm. The full value used was the inhibitor-free reaction. The pharmacological zero value used was XAV-939 (Tocris) in a final concentration of 5 μM. The inhibitory values (IC50) were determined using either the program Symyx Assay Explorer® or Condosseo® from GeneData.

[3] = biological target: T2, GST-tagged Tankyrase-1 (1023-1327 aa) (Homo sapiens, UniProt O95271); experiment: Tankyrase 1 autoparsylation assay (HTRF enzyme assay); format: biochemical
T2 construct: GST-tagged Tankyrase-1 (1023-1327 aa)
Protocol: (§4) The autoparsylation assay was run in two steps: the enzymatic reaction in which GST-tagged Tankyrase-1, resp Tankyrase-2 transferred biotinylated ADP-ribose to itself from biotinylated NAD as co-substrate and the detection reaction where a time resolved FRET between cryptate labelled anti-GST bound to the GST tag of the enzyme and Xlent® labelled-streptavidin bound the biotin-parsylation residue was analysed. The autoparsylation activity was detectable directly via the increase in HTRF signal.
(§5) The autoparsylation assay was performed as 384-well HTRF® (Cisbio, Codolet, France) assay format in Greiner low volume nb 384-well microtiter plates and was used for high throughput screen. 250 nM GST-tagged Tankyrase-1 (1023-1327 aa), respectively about 250 nM GST-tagged Tankyrase-2 (873-1166 aa) and 5 μM bio-NAD (Biolog, Life science Inst., Bremen, Germany) as co-substrate were incubated in a total volume of 5 μl (50 mM HEPES, 4 mM Mg-chloride, 0.05% Pluronic F-68, 1.4 mM DTT, 0.5% DMSO, pH 7.7) in the absence or presence of the test compound (10 dilution concentrations) for 90 min at 30° C. The reaction was stopped by the addition of 1 μl 50 mM EDTA solution. 2 μl of the detection solution (1.6 μM SA-Xlent® (Cisbio, Codolet, France), 7.4 nM Anti-GST-K® (Eu-labelled anti-GST, Cisbio, Codolet, France) in 50 mM HEPES, 800 mM KF, 0.1% BSA, 20 mM EDTA, 0.1% CHAPS, pH 7.0) were added. After 1 h incubation at room temperature the HTRF was measured with an Envision multimode reader (Perkin Elmer LAS Germany GmbH) at excitation wavelength 340 nm (laser mode) and emission wavelengths 615 nm and 665 nm. The ratio of the emission signals was determined. The full value used was the inhibitor-free reaction. The pharmacological zero value used was XAV-939 (Tocris) in a final concentration of 5 μM. The inhibitory values (IC50) were determined using either the program Symyx Assay Explorer® or Condosseo® from GeneData.

[4] = biological target: T3, GST-tagged Tankyrase-2 (873-1166 aa) (Homo sapiens, UniProt Q9H2K2); experiment: Tankyrase 2 autoparsylation assay (HTRF enzyme assay); format: biochemical
T3 construct: GST-tagged Tankyrase-2 (873-1166 aa)
Protocol: as §4, §5

[5] = biological target: T4, GST-tagged Tnks-2 (873-1166 aa) (Homo sapiens, UniProt Q9H2K2); experiment: TNKS 2 activity ELISA (autoparsylation assay); format: biochemical; details: read-out: IC50 tankyrase 2 (ELISA assay)
T4 construct: GST-tagged Tnks-2 (873-1166 aa, prepared in-house); made in house
Protocol: as §1, §2, §3

[6] = biological target: T5, His-tagged Parp-1 (Homo sapiens, UniProt P09874); experiment: PARP-1 autoparsylation assay (HTRF); format: biochemical; details: read-out: IC50 PARP1
T5 construct: purchased Enzo Life Sciences GmbH, Lörrach, Germany
Protocol: Biochemical Activity Testing of PARP-1: Autoparsylation Assay
as §4, with “His-tagged Parp-1” for “GST-tagged Tankyrase-1, resp Tankyrase-2”, “ADP-ribose/ADP-ribose” for “ADP-ribose”, “NAD/NAD” for “NAD”, “anti-His antibody” for “anti-GST”, “His” for “GST”
The autoparsylation assay was performed as 384-well HTRF® (Cisbio, Codolet, France) assay format in Greiner low volume nb 384-well microtiter plates. 35 nM His-tagged Parp-1 (human, recombinant, Enzo Life Sciences GmbH, Lörrach, Germany) and a mixture of 125 nM bio-NAD (Biolog, Life science Inst., Bremen, Germany) and 800 nM NAD as co-substrate were incubated in a total volume of 6 μl (100 mM Tris/HCl, 4 mM Mg-chloride, 0.01% IGEPAL® CA630, 1 mM DTT, 0.5% DMSO, pH 8, 13 ng/μl activated DNA (BPS Bioscience, San Diego, US)) in the absence or presence of the test compound (10 dilution concentrations) for 150 min at 23° C. The reaction was stopped by the addition of 4 μl of the Stop/detection solution (70 nM SA-Xlent® (Cisbio, Codolet, France), 2.5 nM Anti-His-K® (Eu-labelled anti-His, Cisbio, Codolet, France) in 50 mM HEPES, 400 mM KF, 0.1% BSA, 20 mM EDTA, pH 7.0). After 1 h incubation at room temperature the HTRF was measured with an Envision multimode reader (Perkin Elmer LAS Germany GmbH) at excitation wavelength 340 nm (laser mode) and emission wavelengths 615 nm and 665 nm. The ratio of the emission signals was determined. The full value used was the inhibitor-free reaction. The pharmacological zero value used was Olaparib (LClabs, Woburn, US) in a final concentration of 1 μM. The inhibitory values (IC50) were determined using either the program Symyx Assay Explorer® or Condosseo® from GeneData.

[7] = tested on: DLD-1-cancer cells; details: cited from earlier work

T4 sequence (Q9H2K2 873-1166): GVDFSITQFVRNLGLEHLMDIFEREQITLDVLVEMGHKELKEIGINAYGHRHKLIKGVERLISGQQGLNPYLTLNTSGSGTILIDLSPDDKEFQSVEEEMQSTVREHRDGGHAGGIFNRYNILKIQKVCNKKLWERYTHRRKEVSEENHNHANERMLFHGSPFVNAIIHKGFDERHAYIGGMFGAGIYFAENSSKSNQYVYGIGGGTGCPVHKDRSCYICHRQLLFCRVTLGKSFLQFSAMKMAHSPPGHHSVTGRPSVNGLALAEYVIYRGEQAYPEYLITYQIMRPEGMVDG
T3 sequence (Q9H2K2 873-1166): as above
T2 sequence (O95271 1023-1327): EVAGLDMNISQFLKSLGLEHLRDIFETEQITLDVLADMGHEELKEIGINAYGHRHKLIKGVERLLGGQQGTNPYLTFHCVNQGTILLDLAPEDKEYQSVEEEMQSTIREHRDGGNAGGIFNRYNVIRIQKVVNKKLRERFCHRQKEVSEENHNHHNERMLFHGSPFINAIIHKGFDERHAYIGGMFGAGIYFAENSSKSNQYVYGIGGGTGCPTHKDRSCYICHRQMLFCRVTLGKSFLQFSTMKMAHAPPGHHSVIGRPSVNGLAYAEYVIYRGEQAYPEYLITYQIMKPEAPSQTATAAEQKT
T1 sequence (O95271 1023-1327): as above
T5 sequence (P09874 whole entry): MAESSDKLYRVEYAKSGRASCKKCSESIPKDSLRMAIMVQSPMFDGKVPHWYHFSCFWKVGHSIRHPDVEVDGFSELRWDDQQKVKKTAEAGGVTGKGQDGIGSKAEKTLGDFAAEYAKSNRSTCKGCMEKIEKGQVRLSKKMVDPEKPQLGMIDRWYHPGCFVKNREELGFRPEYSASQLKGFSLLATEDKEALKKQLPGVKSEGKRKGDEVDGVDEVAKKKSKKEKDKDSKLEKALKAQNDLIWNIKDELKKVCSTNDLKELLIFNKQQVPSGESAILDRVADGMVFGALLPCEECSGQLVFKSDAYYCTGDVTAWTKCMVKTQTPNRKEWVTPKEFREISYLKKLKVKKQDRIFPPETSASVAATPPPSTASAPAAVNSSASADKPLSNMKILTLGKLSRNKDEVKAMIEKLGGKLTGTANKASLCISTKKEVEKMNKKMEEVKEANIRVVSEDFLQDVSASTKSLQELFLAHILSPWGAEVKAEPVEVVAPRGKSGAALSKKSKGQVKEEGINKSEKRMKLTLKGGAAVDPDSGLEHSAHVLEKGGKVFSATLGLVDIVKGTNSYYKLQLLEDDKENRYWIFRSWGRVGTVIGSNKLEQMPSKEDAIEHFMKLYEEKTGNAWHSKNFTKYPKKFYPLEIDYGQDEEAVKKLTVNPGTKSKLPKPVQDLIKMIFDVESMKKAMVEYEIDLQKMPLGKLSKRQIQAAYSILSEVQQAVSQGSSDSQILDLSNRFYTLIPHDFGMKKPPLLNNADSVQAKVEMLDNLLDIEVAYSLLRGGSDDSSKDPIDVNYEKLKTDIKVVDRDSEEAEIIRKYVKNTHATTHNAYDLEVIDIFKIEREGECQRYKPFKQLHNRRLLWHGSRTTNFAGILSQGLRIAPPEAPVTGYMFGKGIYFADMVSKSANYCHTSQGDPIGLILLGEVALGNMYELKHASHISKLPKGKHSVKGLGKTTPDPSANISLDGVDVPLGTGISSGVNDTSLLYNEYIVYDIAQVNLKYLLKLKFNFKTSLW

Row | SMILES | EC50 [1] [nM] | IC50 [2] [nM] | IC50 [3] [nM] | IC50 [4] [nM] | IC50 [5] [nM] | IC50 [6] [nM] | growth of DLD-1-cancer cells [7]
1 | O=c1[nH]c(N2CCC(C(F)(F)F)CC2)nc2c1CCCC2 [Compound A10, 2-(4-Trifluoromethylpiperidin-1-yl)-5,6,7,8-tetrahydro-3H-quinazolin-4-one] | 3000 to 50000 | < 300 | 300 to 3000 | 300 to 3000 | < 300 |  | 
2 | O=c1[nH]c(N2CCN(c3cccc(Cl)c3)CC2)nc2c1CCCC2 [Compound A11, 2-[4-(3-Chlorophenyl)piperazin-1-yl]-5,6,7,8-tetrahydro-3H-quinazolin-4-one] | 300 to 3000 | < 300 | 300 to 3000 | 300 to 3000 | < 300 |  | 
3 | NC(=O)c1ccccc1N1CCN(c2nc3c(c(=O)[nH]2)CCCC3)CC1 [Compound A34, 2-[4-(4-oxo-5,6,7,8-tetrahydro-3H-quinazolin-2-yl)piperazin-1-yl]benzamide] |  | < 300 | < 300 | 300 to 3000 | < 300 | < 300 | 
4 | COc1ccc(N2CCN(c3nc4c(c(=O)[nH]3)CCCC4)CC2)c(OC)c1 [Compound A37, 2-[4-(2,4-dimethoxyphenyl)piperazin-1-yl]-5,6,7,8-tetrahydro-3H-quinazolin-4-one] | 300 to 3000 | < 300 | 300 to 3000 | 300 to 3000 | < 300 |  | 
5 | O=c1[nH]c(N2CCN(c3ccc(F)cc3Cl)CC2)nc2c1CCCC2 [Compound A39, 2-[4-(2-chloro-4-fluoro-phenyl)piperazin-1-yl]-5,6,7,8-tetrahydro-3H-quinazolin-4-one] | 300 to 3000 | < 300 | 300 to 3000 | 300 to 3000 | < 300 |  | 
6 | COc1ccc(N2CCN(c3nc4c(c(=O)[nH]3)CCCC4)CC2)cn1 [Compound A51, 2-[4-(6-methoxy-3-pyridyl)piperazin-1-yl]-5,6,7,8-tetrahydro-3H-quinazolin-4-one] | 300 to 3000 | 300 to 3000 | 300 to 3000 | 300 to 3000 | 300 to 3000 |  | 
7 | COc1ccccc1C1CCN(c2nc3c(c(=O)[nH]2)CCCC3)CC1 [Compound A54, 2-[4-(2-methoxy-phenyl)-piperidin-1-yl]-5,6,7,8-tetrahydro-3H-quinazolin-4-one] | 300 to 3000 | < 300 | < 300 | 300 to 3000 | < 300 |  | 
8 | COc1ccc(C2CCN(c3nc4c(c(=O)[nH]3)CCCC4)CC2)cc1 [Compound A55, 2-[4-(4-methoxy-phenyl)-piperidin-1-yl]-5,6,7,8-tetrahydro-3H-quinazolin-4-one] | 3000 to 50000 | < 300 | < 300 | 300 to 3000 | < 300 |  | 
9 | O=c1[nH]c(N2CCN(c3ccccc3C(F)(F)F)CC2)nc2c1CCCC2 [Compound A56, 2-[4-(2-trifluoromethyl-phenyl)-piperazin-1-yl]-5,6,7,8-tetrahydro-3H-quinazolin-4-one] | 300 to 3000 | < 300 | < 300 | 300 to 3000 | < 300 |  | 
10 | Oc1nc(-c2ccc(C(F)(F)F)cc2)nc2c1CSCC2 [XAV939] |  |  |  |  |  |  | inhibits growth
